Assay results as given in the CheMixHub viscosity set.
± gives the uncertainty stated by the source.

Experiment: xn = mol fraction of the nth substance listed
Settings: 101 kPa

CC(O)CN(C)C (stereo not given) + O
viscosity [mPa·s]
Settings	293.15 K	303.15 K	308.15 K	313.15 K
x1 = 0.05	–	2.279 ± 0.02	1.935 ± 0.017	1.656 ± 0.015
x1 = 0.0997	–	4.278 ± 0.031	3.466 ± 0.027	2.852 ± 0.023
x1 = 0.1	7.22 ± 0.16	4.74 ± 0.1	–	–
x1 = 0.1507	–	5.905 ± 0.042	4.691 ± 0.037	3.78 ± 0.03
x1 = 0.2001	9.89 ± 0.21	6.37 ± 0.14	–	–
x1 = 0.2021	–	6.775 ± 0.05	5.334 ± 0.044	–
x1 = 0.2501	–	–	5.478 ± 0.046	–
x1 = 0.3003	9.87 ± 0.21	6.34 ± 0.14	–	–
x1 = 0.3013	–	6.703 ± 0.054	5.288 ± 0.045	–
x1 = 0.3507	–	6.218 ± 0.052	4.934 ± 0.043	–
x1 = 0.3998	8.61 ± 0.19	5.52 ± 0.12	–	–
x1 = 0.4013	–	5.613 ± 0.048	4.485 ± 0.04	–
x1 = 0.4578	–	4.875 ± 0.044	3.936 ± 0.036	–
x1 = 0.4999	6.61 ± 0.14	4.37 ± 0.1	–	–
x1 = 0.5049	–	4.294 ± 0.04	3.499 ± 0.033	–
x1 = 0.6	4.76 ± 0.1	3.18 ± 0.07	–	–
x1 = 0.6009	–	3.285 ± 0.033	2.747 ± 0.028	–
x1 = 0.7002	3.38 ± 0.07	2.31 ± 0.05	–	–
x1 = 0.7054	–	2.482 ± 0.027	2.111 ± 0.023	–
x1 = 0.7955	–	1.957 ± 0.023	1.697 ± 0.02	–
x1 = 0.8	2.47 ± 0.05	1.83 ± 0.04	–	–
x1 = 0.8905	–	1.561 ± 0.02	1.375 ± 0.018	–
x1 = 0.9001	1.94 ± 0.04	1.5 ± 0.03	–	–
x1 = 0.9564	–	1.347 ± 0.018	1.201 ± 0.017	–
